# Tested on: human skin
# Assay: Dermal exposure test
# Assay type: in vivo
# Description: The objective of this study was to evaluate the dermal irritancy and corrosiveness of the composition of Example 2, following a single application to human skin. To assess the safety upon spillage on human skin, a few drops of the synthetic acid according to a preferred embodiment of the present invention and a control composition (MSA—70%) were applied to the skin on the back of the hand of a test individual. The hands were not covered and remained exposed to the compositions for a period of up to one hour. The exposed skin was subsequently washed with soap and visual assessment of the exposed area was done 24 hours after the start of the exposure.
smiles,measurement,setting,value
"CS(=O)(=O)O [MSA (70%), Methanesulfonic acid]","Dermal exposure, skin observation","24 hrs from exposure, after washing with soap",scab formation
same,"Dermal exposure, skin observation","back of hand, 0 hrs from exposure",immediate burning
same,"Dermal exposure, skin observation","back of hand, 1 hrs from exposure",red skin irritation with large blisters
same,"Dermal exposure, skin observation","back of hand, ½ hrs from exposure",small blisters

# — patent US10329476B2, “Non-regulated synthetic acid compositions for use as alternatives to conventional acids in the oil and gas industry” (FLUID ENERGY GROUP LTD., priority 2015, dated 2019)
